Results as given in PMC2954222, “The structure of Haemophilus influenzae prephenate dehydrogenase suggests unique features of bifunctional TyrA enzymes” (Acta Crystallographica Section F: Structural Biology and …, 2010).

Biological target: T1, HinfPDH (prephenate dehydrogenase component of chorismate mutase/prephenate dehydrogenase TyrA) (Haemophilus influenzae, UniProt P43902)
T1 construct: prephenate dehydrogenase domain, residues 81-377 (Met1-Phe80 excluded); N-terminal His tag removed by TEV, leaving Gly; selenomethionine-labelled; expressed in E. coli; dimer
Assay: X-ray crystal structure, […] A
Format: binding
Settings: ligand acquired during expression in E. coli, not added

T1 sequence (P43902 81-377): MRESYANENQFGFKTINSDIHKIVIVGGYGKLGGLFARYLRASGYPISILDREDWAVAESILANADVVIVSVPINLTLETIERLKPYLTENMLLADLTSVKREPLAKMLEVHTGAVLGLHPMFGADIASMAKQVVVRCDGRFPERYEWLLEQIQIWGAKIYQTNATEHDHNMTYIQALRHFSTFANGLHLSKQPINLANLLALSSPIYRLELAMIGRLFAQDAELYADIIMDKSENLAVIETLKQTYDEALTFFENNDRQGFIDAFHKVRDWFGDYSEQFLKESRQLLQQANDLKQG

## NC(=O)c1ccc[n+]([C@@H]2O[C@H](COP(=O)(O)OP(=O)(O)OC[C@H]3O[C@@H](n4cnc5c(N)ncnc54)[C@H](O)[C@@H]3O)[C@@H](O)[C@H]2O)c1 [NAD^+]
Ternary complex with tyrosine, cofactor site
  X-ray crystal structure, 2.0 A: One tyrosine and one NAD^+ are bound in each monomer

## N[C@@H](Cc1ccc(O)cc1)C(=O)O [tyrosine]
Ternary complex with NAD+, active site, competitive mode only inferred
  X-ray crystal structure, 2.0 A: could be unambiguously assigned to a tyrosine molecule and an NAD^+ cofactor
